Experimental data from patent US20220055989A1, “CONDENSED PYRROLES AS NOVEL BROMODOMAIN INHIBITORS” (ALBERT LUDWING UNIVERSITÄT FREIBURG, priority 2018, published 2022).

Legend:
[1] = molecular target: T1, BRD4(1) (Homo sapiens, UniProt O60885); assay: Isothermal titration calorimetry, dissociation constant KD BRD4(1); format: binding
T1 construct: BRD4-BD1 was expressed and purified as described previously; made in house
Experimental: BRD4-BD1 was expressed and purified as described previously (Filippakopoulos et al, (2012), Cell 149(1): […]) with the exception of the final buffer for crystallization and ITC analysis (20 mM Hepes/NaOH pH 7.5, 150 mM NaCl). Crystals were grown in the presence of 3.5 M Na-Formate (pH 7.5) at a protein concentration of 10 mg/ml and a ligand concentration of 2 mM added directly to the protein prior to crystallization from a 100 mM stock solution in DMSO. Data were collected at 100K using either a Rigaku HF-007 rotating anode X-ray generator equipped with VariMaxHF optics and a Saturn944 CCD detector or a mar345 image plate respectively at λ=1.54179 Å or at the PXI beamline at the Swiss Light Source at λ=1.000 Å with a Pilatus detector. Data processing and reduction was done with iMOSFLM (Leslie AGW PH (2007), Evolving Methods for Macromolecular Crystallography 245, 41.51), POINTLESS, and SCALA (Kabsch W (2010) Xds. Acta crystallographica. Section D, Biological crystallography 66(Pt 2):125-132; Bruker (2008) SADABS, SAINT and XPREP (Bruker AXS Inc., Madison, Wis., USA); Collaborative Computational Project N (1994) The CCP4 suite: programs for protein crystallography, Acta crystallographica, Section D, Biological crystallography 50(Pt 5):760-763), or with XDS, XSCALE, XDSCONV (Evans P (2006), Scaling and assessment of data quality, Acta crystallographica, Section D, Biological crystallography 62(Pt 1):72-82), and XPREP (Evans P R (2011), An introduction to data reduction: space-group determination, scaling and intensity statistics, Acta crystallographica, Section D, Biological crystallography 67(Pt 4):282-292).
Data were obtained in discrete titration experiments with an injection volume of 12 μl per injection. Subsequently, the heats per injection were calculated as integrals and after normalization against the molar concentrations plotted against the molar ratio as implemented in Microcal Origin. Finally, data were fitted according to a single set of sites binding model with
The dissociation constant Kd, is commonly used to describe the affinity between a ligand L and a protein, i.e. how tightly a ligand binds to a particular protein. The dissociation constant has molar units which correspond to the concentration of ligand at which the binding site on a particular protein is half occupied, i.e. the concentration of the ligand at which the concentration of protein with ligand bound equals the concentration of protein with no ligand bound. The smaller the dissociation constant, the higher the affinity between ligand and protein.

[2] = molecular target: T2, CECR2 (Homo sapiens, UniProt Q9BXF3); assay: BROMOscan Kd determination CECR2; format: binding
T2 construct: T7 phage strains displaying bromodomains were grown; host or cells: T7 phage in E. coli derived from BL21
Experimental: (§1) Bromodomain profiling was carried out on the basis of BROMOscan™. This platform accounted for the indirect determination of the dissociation constants between 19 bromodomains and the compound of formula (13), by binding competition against a reference immobilized ligand. Compounds that bind the bromodomain prevent its binding to the immobilized ligand thus reducing the amount of protein captured. […] Hits are identified by measuring the amount of bromodomain captured in test versus control samples. Bromodomain assays for Kd determination: T7 phage strains displaying bromodomains were grown in parallel in 24-well blocks in an E. coli host derived from the BL21 strain. E. coli were grown to log-phase and infected with T7 phage from a frozen stock (multiplicity of infection=0.4) and incubated with shaking at 32° C. until lysis (90-150 minutes). The lysates were centrifuged (5,000×g) and filtered (0.2 μm) to remove cell debris. […] The liganded beads were blocked with excess biotin and washed with blocking buffer (SeaBlock (Pierce), 1% BSA, 0.05% Tween 20, 1 mM DTT) to remove unbound ligand and to reduce non-specific phage binding. […] Test compounds were prepared as 1000× stocks in 100% DMSO. Kds were determined using an 11-point 3-fold compound dilution series with one DMSO control point. All compounds for Kd measurements are distributed by acoustic transfer (non-contact dispensing) in 100% DMSO. The compounds were then diluted directly into the assays such that the final concentration of DMSO was 0.09%. All reactions performed in polypropylene 384-well plates. Each was a final volume of 0.02 ml. […] The bromodomain concentration in the eluates was measured by qPCR. […] All compounds for Kd measurements are distributed by acoustic transfer (non-contact dispensing) in 100% DMSO. The compounds were then diluted directly into the assays such that the final concentration of DMSO was 0.09%. Most Kds were determined using a compound top concentration=10,000 nM. If the initial Kd determined was <0.169 nM (the lowest concentration tested), the measurement was repeated with a serial dilution starting at a lower top concentration. Binding Constants (Kds): Binding constants (Kds) were calculated with a standard dose-response curve using the Hill equation: The Hill Slope was set to −1. Curves were fitted using a non-linear least square fit with the Levenberg-Marquardt algorithm.

[3] = molecular target: T3, BRPF1 (Homo sapiens, UniProt P55201); assay: BROMOscan Kd determination BRPF1; format: binding
T3 construct: T7 phage strains displaying bromodomains were grown; host or cells: T7 phage in E. coli derived from BL21
T3 sequence (P55201 628-732 limits assumed): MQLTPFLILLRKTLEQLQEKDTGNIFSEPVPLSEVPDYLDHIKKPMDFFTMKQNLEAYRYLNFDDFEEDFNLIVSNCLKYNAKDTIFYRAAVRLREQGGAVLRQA
Experimental: as §1

[4] = molecular target: T4, BRD9 (Homo sapiens, UniProt Q9H8M2); assay: BROMOscan Kd determination BRD9; format: binding
T4 construct: T7 phage strains displaying bromodomains were grown; host or cells: T7 phage in E. coli derived from BL21
T4 sequence (Q9H8M2 136-240 limits assumed): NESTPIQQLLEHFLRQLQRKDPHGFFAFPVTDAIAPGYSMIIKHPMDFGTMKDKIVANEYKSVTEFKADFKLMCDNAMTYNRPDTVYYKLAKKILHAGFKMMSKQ
Experimental: as §1

[5] = molecular target: T5, EP300 (Homo sapiens, UniProt Q09472); assay: BROMOscan Kd determination EP300; format: binding
T5 construct: T7 phage strains displaying bromodomains were grown; host or cells: T7 phage in E. coli derived from BL21
T5 sequence (Q09472 1049-1156 limits assumed): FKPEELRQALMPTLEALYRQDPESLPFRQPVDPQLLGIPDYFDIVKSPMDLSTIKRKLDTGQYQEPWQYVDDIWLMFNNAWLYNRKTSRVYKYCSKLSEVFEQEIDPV
Experimental: as §1

[6] = molecular target: T6, BRD7 (Homo sapiens, UniProt Q9NPI1); assay: BROMOscan Kd determination BRD7; format: binding
T6 construct: T7 phage strains displaying bromodomains were grown; host or cells: T7 phage in E. coli derived from BL21
T6 sequence (Q9NPI1 131-235 limits assumed): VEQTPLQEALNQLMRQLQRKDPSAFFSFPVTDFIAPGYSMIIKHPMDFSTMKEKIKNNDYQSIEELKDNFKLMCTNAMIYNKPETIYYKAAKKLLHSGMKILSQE
Experimental: as §1

[7] = tested on: HL-60 cells; assay: GI50 in a culture of HL-60 cells; format: cell-based; conditions: concentration required to reduce the population of a culture of HL-60 cells by 50%
[8] = molecular target: T1, BRD4(1); assay: BROMOscan Kd determination BRD4(1); format: binding
Experimental: as §1

[9] = molecular target: T7, BRPF1B (Homo sapiens, UniProt P55201); assay: Dissociation constant KD BRPF1B; format: binding
T7 construct: dissociation constants KD for two bromodomains (BRD4(1) and BRPF1B)
T7 sequence (P55201 628-732 limits assumed): T3 sequence (P55201 628-732 limits assumed)

[10] = tested on: P. falciparum cultures; assay: Plasmodium falciparum inhibitor treatment for 72 hours, parasitemia by flow cytometry; format: cell-based; conditions: 100 μm of compound, vs DMSO control, early ring, mid trophozoite and schizont stages
Experimental: Plasmodium falciparum Inhibitor Treatment for 72 Hours (One Replication Cycle) P. falciparum cultures were treated for 72 hours with 100 μm of compounds (19) to (22), (24) and (25) or DMSO as control. The cultures were stained for DNA content with fluorescent dye Hoechst 33342 (20 μm) and for RNA content with thiazole orange (1 μm). The double negative population represented uninfected erythrocytes (devoid of DNA and low in RNA content) whereas the P. falciparum infected erythrocytes were gated as early ring, mid trophozoite and late schizont stages based on their DNA and RNA content.

T2 sequence (Q9BXF3 434-538 limits assumed): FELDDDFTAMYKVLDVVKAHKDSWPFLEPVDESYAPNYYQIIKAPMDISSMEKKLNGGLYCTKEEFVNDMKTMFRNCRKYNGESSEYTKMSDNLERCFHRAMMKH

Compound | Kd [1] | Kd [2] | Kd [3] | Kd [4] | Kd [5] | Kd [6] | Kd [8] | Kd [9] | other results
CCN(CC)S(=O)(=O)c1ccc(O)c(NC(=O)c2[nH]c(C)c3c2CCCCC3=O)c1 [Compound 18] | 72.2 nM | – | – | – | – | – | – | – | –
COc1ccc(S(=O)(=O)N2CCCCCC2)cc1NC(=O)c1[nH]c(C)c2c1CCCCC2=O [Compound 12, N-(5-(azepan-1-ylsulfonyl)-2-methoxyphenyl)-3-methyl-4-oxo-2,4,5,6,7,8-hexahydrocyclohepta[c]pyrrole-1-carboxamide] | 177 nM | 8100 nM | 2500 nM | 530 nM | 9000 nM | 310 nM | 170 nM | – | GI50HL60 [7]: 570 nM
COc1ccc(S(=O)(=O)N2CCN(C)CC2)cc1NC(=O)c1[nH]c(C)c2c1CCCCC2=O [Compound 14] | 260 nM | 240 nM | 320 nM | 68 nM | 1800 nM | 160 nM | 300 nM | – | GI50HL60 [7]: 2080 nM
Cc1[nH]c(-c2cccc(N)c2)c2c1C(=O)CCCC2 [Compound 20] | – | – | – | – | – | – | – | 567 nM | –
CCOC(=O)c1[nH]c(C)c2c1CCC=CC2=O [Compound 9, Ethyl 3-methyl-4-oxo-2,4,7,8-tetrahydrocyclohepta[c]pyrrole-1-carboxylate] | 8280 nM | – | – | – | – | – | – | 2050 nM | –
CCN(CC)S(=O)(=O)c1ccc(OC)c(NC(=O)c2[nH]c(C)c3c2CCCCC3=O)c1 [Compound 11, N-(5-(N,N-diethylsulfamoyl)-2-methoxyphenyl)-3-methyl-4-oxo-2,4,5,6,7,8-hexahydrocyclohepta[c]pyrrole-1-carboxamide] | 144 nM | 1100 nM | 420 nM | 160 nM | 2100 nM | 250 nM | 85 nM | – | GI50HL60 [7]: 1360 nM
Cc1[nH]c(-c2cccc(C(N)=O)c2)c2c1C(=O)CCCC2 [Compound 25] | – | – | – | – | – | – | – | 713 nM | –
CCOC(=O)c1[nH]c(C)c2c1CCCCC2=O [Compound 8, Ethyl 3-methyl-4-oxo-2,4,5,6,7,8-hexahydrocyclohepta[c]pyrrole-1-carboxylate] | 4560 nM | – | – | – | – | – | – | 1050 nM | –
CNC(=O)c1[nH]c(C)c2c1CCCCC2=O [1″] | 6410 nM | – | – | – | – | – | – | 5080 nM | –
Cc1[nH]c(-c2ccc3cc[nH]c3c2)c2c1C(=O)CCCC2 [Compound 24, 1-(1H-indol-6-yl)-3-methyl-5,6,7,8-tetrahydrocyclohepta[c]pyrrol-4(2H)-one] | – | – | – | – | – | – | – | 639 nM | degree of parasitemia [10]: particularly effective
COc1ccc(S(=O)(=O)N2CCCCC2)cc1NC(=O)c1[nH]c(C)c2c1CCCCC2=O [Compound 15] | 47.3 nM | 580 nM | 1800 nM | 300 nM | 3500 nM | 440 nM | 82 nM | – | –
Cc1[nH]c(-c2ccccc2)c2c1C(=O)CCCC2 [Compound 21] | – | – | – | – | – | – | – | 1990 nM | –
COc1ccc(S(=O)(=O)N2CC3(COC3)C2)cc1NC(=O)c1[nH]c(C)c2c1CCCCC2=O [Compound 16] | 417 nM | 760 nM | 1300 nM | 4.3 nM | 990 nM | 5.5 nM | 150 nM | – | –
Cc1noc(-c2[nH]c(C)c3c2CCCCC3=O)n1 [Compound 22] | – | – | – | – | – | – | – | 2310 nM | –
Cc1[nH]c(-c2cccc(O)c2)c2c1C(=O)CCCC2 [Compound 19] | – | – | – | – | – | – | – | 910 nM | –
